Laboratory results taken from the NIST ThermoML archive (doi:10.1016/j.jct.2017.11.007).

Test: mn = molality of the nth substance listed, in mol/kg
Details: 74.66 kPa, Liquid; for speed of sound: Frequency=3 MHz, Single path-length method; for mass density: Vibrating tube method

Cc1ccnc([N-]S(=O)(=O)c2ccc(N)cc2)n1.[Na+] + O
Details | mass density [kg/m3] | speed of sound [m/s]
278.15 K, m1 = 0.005 | 1000.56 | 1428.1
278.15 K, m1 = 0.008 | 1000.91 | 1428.7
278.15 K, m1 = 0.01 | 1001.15 | 1429.2
278.15 K, m1 = 0.01486 | 1001.72 | 1430.2
278.15 K, m1 = 0.02002 | 1002.33 | 1431
278.15 K, m1 = 0.025 | 1002.91 | 1432.2
278.15 K, m1 = 0.03001 | 1003.5 | 1433.4
278.15 K, m1 = 0.035 | 1004.08 | 1434.2
278.15 K, m1 = 0.03931 | 1004.59 | 1435.5
278.15 K, m1 = 0.045 | 1005.25 | 1436.4
278.15 K, m1 = 0.05 | 1005.83 | 1437.5
278.15 K, m1 = 0.05502 | 1006.42 | 1438.5
278.15 K, m1 = 0.05998 | 1007 | 1439.4
283.15 K, m1 = 0.005 | 1000.28 | 1448.9
283.15 K, m1 = 0.008 | 1000.63 | 1449.4
283.15 K, m1 = 0.01 | 1000.87 | 1449.8
283.15 K, m1 = 0.01486 | 1001.42 | 1450.8
283.15 K, m1 = 0.02002 | 1002.02 | 1451.6
283.15 K, m1 = 0.025 | 1002.6 | 1452.7
283.15 K, m1 = 0.03001 | 1003.18 | 1453.7
283.15 K, m1 = 0.035 | 1003.75 | 1454.6
283.15 K, m1 = 0.04002 | 1004.33 | 1455.6
283.15 K, m1 = 0.045 | 1004.9 | 1456.7
283.15 K, m1 = 0.04968 | 1005.43 | 1457.4
283.15 K, m1 = 0.05502 | 1006.05 | 1458.5
283.15 K, m1 = 0.05998 | 1006.62 | 1459.4
288.15 K, m1 = 0.005 | 999.679 | 1467.5
288.15 K, m1 = 0.008 | 1000.02 | 1467.8
288.15 K, m1 = 0.01 | 1000.25 | 1468.2
288.15 K, m1 = 0.01486 | 1000.8 | 1469.3
288.15 K, m1 = 0.02002 | 1001.39 | 1469.9
288.15 K, m1 = 0.025 | 1001.96 | 1470.9
288.15 K, m1 = 0.03001 | 1002.53 | 1471.8
288.15 K, m1 = 0.035 | 1003.09 | 1472.7
288.15 K, m1 = 0.04002 | 1003.66 | 1473.7
288.15 K, m1 = 0.04499 | 1004.23 | 1474.6
288.15 K, m1 = 0.05 | 1004.8 | 1475.4
288.15 K, m1 = 0.05501 | 1005.37 | 1476.5
288.15 K, m1 = 0.05998 | 1005.94 | 1477.2
293.15 K, m1 = 0.005 | 998.778 | 1483.7
293.15 K, m1 = 0.008 | 999.118 | 1484
293.15 K, m1 = 0.01 | 999.342 | 1484.4
293.15 K, m1 = 0.01486 | 999.886 | 1485.3
293.15 K, m1 = 0.02002 | 1000.47 | 1486.1
293.15 K, m1 = 0.025 | 1001.03 | 1487
293.15 K, m1 = 0.03001 | 1001.59 | 1487.8
293.15 K, m1 = 0.035 | 1002.15 | 1488.6
293.15 K, m1 = 0.04002 | 1002.71 | 1489.5
293.15 K, m1 = 0.04499 | 1003.27 | 1490.3
293.15 K, m1 = 0.05 | 1003.84 | 1491.2
293.15 K, m1 = 0.05501 | 1004.4 | 1492
293.15 K, m1 = 0.05998 | 1004.96 | 1492.8
298.15 K, m1 = 0.005 | 997.615 | 1497.8
298.15 K, m1 = 0.008 | 997.95 | 1498.2
298.15 K, m1 = 0.01 | 998.172 | 1498.5
298.15 K, m1 = 0.01486 | 998.708 | 1499.3
298.15 K, m1 = 0.02002 | 999.286 | 1500
298.15 K, m1 = 0.025 | 999.841 | 1500.9
298.15 K, m1 = 0.03001 | 1000.39 | 1501.7
298.15 K, m1 = 0.035 | 1000.95 | 1502.5
298.15 K, m1 = 0.04002 | 1001.5 | 1503.3
298.15 K, m1 = 0.04499 | 1002.05 | 1504.1
298.15 K, m1 = 0.05 | 1002.61 | 1504.8
298.15 K, m1 = 0.05501 | 1003.17 | 1505.7
298.15 K, m1 = 0.05998 | 1003.73 | 1506.5
303.15 K, m1 = 0.005 | 996.212 | 1510
303.15 K, m1 = 0.008 | 996.544 | 1510.5
303.15 K, m1 = 0.01 | 996.764 | 1510.8
303.15 K, m1 = 0.01486 | 997.296 | 1511.6
303.15 K, m1 = 0.02002 | 997.863 | 1512.3
303.15 K, m1 = 0.025 | 998.416 | 1513.1
303.15 K, m1 = 0.03001 | 998.961 | 1513.8
303.15 K, m1 = 0.035 | 999.509 | 1514.6
303.15 K, m1 = 0.04002 | 1000.06 | 1515.3
303.15 K, m1 = 0.04499 | 1000.61 | 1516.1
303.15 K, m1 = 0.05 | 1001.16 | 1516.8
303.15 K, m1 = 0.05501 | 1001.71 | 1517.6
303.15 K, m1 = 0.05998 | 1002.26 | 1518.3
308.15 K, m1 = 0.005 | 994.593 | 1520.6
308.15 K, m1 = 0.008 | 994.922 | 1521.1
308.15 K, m1 = 0.01 | 995.14 | 1521.4
308.15 K, m1 = 0.01486 | 995.663 | 1522.1
308.15 K, m1 = 0.02002 | 996.227 | 1522.8
308.15 K, m1 = 0.025 | 996.774 | 1523.5
308.15 K, m1 = 0.03001 | 997.316 | 1524.2
308.15 K, m1 = 0.035 | 997.858 | 1524.9
308.15 K, m1 = 0.04002 | 998.402 | 1525.7
308.15 K, m1 = 0.04499 | 998.941 | 1526.3
308.15 K, m1 = 0.05 | 999.494 | 1527.1
308.15 K, m1 = 0.05501 | 1000.03 | 1527.8
308.15 K, m1 = 0.05998 | 1000.58 | 1528.4
